Assay results: patent publication US6492377B1, “Imidazotriazolopyrimidines with adenosine-antagonistic activity” (Boehringer Ingelheim Pharma KG, priority 1998, dated 2002)

Columns and labels:
[1] = biological target: T1, human A3-adenosine receptor (Homo sapiens, UniProt P0DMS8); assay: KiA3 (human) receptor binding
T1 sequence (P0DMS8 1-318): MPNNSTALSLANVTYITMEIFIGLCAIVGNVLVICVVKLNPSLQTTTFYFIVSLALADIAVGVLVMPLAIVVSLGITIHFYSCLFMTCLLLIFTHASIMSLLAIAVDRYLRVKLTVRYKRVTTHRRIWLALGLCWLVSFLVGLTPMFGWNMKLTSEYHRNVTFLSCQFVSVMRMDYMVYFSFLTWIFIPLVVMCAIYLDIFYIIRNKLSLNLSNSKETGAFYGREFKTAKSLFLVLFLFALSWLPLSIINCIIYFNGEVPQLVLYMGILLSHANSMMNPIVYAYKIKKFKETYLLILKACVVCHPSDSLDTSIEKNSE
Experimental: The A3 receptor binding values given hereinafter were determined analogously to […]. “Molecular cloning and characterization of the human A3-adenosine receptor” (Proc. Natl. Acad. Sci. USA 90, 10365-10369, 1993).

[2] = biological target: T2, human A1 adenosine Receptor (Homo sapiens, UniProt P30542); assay: KiA1 (human) receptor binding
T2 sequence (P30542 1-326): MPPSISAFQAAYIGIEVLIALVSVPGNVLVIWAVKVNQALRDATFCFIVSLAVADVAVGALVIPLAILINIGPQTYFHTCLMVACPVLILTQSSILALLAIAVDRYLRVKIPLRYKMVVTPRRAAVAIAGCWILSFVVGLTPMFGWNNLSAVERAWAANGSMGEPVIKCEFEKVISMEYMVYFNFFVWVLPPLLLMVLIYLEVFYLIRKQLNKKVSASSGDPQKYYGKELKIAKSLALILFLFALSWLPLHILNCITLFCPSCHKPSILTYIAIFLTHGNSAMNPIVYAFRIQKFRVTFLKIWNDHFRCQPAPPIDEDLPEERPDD
Experimental: The receptor binding values described hereinafter were determined analogously to Ensinger et al. in “Cloning and functional characterisation of human A1 adenosine Receptor—Biochemical and Biophysical Communications, Vol 187, No. 2, 919-926, 1992”.
The Table which follows contains KiA1 (human) receptor binding values.

With “4-Ethyl-7-methyl-2-(2-phenylethyl)-imidazo[4.5-e]-s-triazolo[1.5-a]pyrimidin-5-one [Example 81]” as the substance, how does the Ki [1] read?
The Ki was 7.2 nM.

For “4-Ethyl-2-(2-phenylethyl)-7-n-propyl-imidazo[4.5-e]-s-triazolo[1.5-a]pyrimidin-5-one [Example 83]”, which Ki [2] is on record?
The Ki was 8.1 nM.
